The supplement of paper PMC4862054
“And” between values parts separate entries of the source, which are not always exact repeats. Equal entries are not always repeated.

Tests used:
CAL-51 [1] = settings: 72 h
Summary of the method: (§1)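 For viability and cell death testing, 384-well plates carried compound at 5 concentrations in 10-fold steps over a compound-specific 10,000-fold range, and breast cancer cell lines were seeded in 20 µl suspension. After 72 h incubation, cell death was read by CellTox Green fluorescence (485/520 nm) before viability was read by CellTiter-Glo luminescence. EC50 was fitted from the dose-response curves and censored at the top concentration. Normalisation on each plate was to 0.1 % DMSO and a positive kill control.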

MDA-MB-468 [2] = settings: 72 h
Procedure: (§2)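 Drug sensitivity and resistance testing (DSRT) of breast cancer cell lines in 384-well plates, 5 concentrations in 10-fold dilutions over a compound-specific 10,000-fold range. After 72 h, cytotoxicity was read by CellTox Green fluorescence and viability by CellTiter-Glo luminescence (multiplexed), normalised to DMSO and benzethonium chloride controls. EC50 is the inflection point of the fitted dose-response curve (bottom asymptote free, so it can be relative for partial curves) and is censored at the highest tested concentration. Rows with DSS 0 (no meaningful response) were excluded.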

CAL-120 [3] = settings: 72 h
Procedure: as §2

SK-BR-3 [4] = settings: 72 h
Summary of the method: as §1

DU-4475 [5] = settings: 72 h
Summary of the method: as §1

MDA-MB-436 [6] = settings: 72 h
Summary of the method: as §1

MDA-MB-453 [7] = settings: 72 h
Summary of the method: as §1

MCF-10A [8] = settings: 72 h
Summary of the method: as §1

HCC1937 [9] = settings: 72 h
Summary of the method: as §1

HCC1599 = settings: 72 h
Summary of the method: as §1

CAL-85-1 [10] = settings: 72 h
Summary of the method: as §1

MDA-MB-231 [11] = settings: 72 h
Summary of the method: as §1

BT-549 [12] = settings: 72 h
Summary of the method: as §1

HCC1143 [13] = settings: 72 h
Summary of the method: as §1

Hs578T [14] = settings: 72 h
Summary of the method: as §1

CAL-120 [15] = settings: 72 h; remark: listed apart in the source
Summary of the method: as §1

MFM-223 [16] = settings: 72 h
Summary of the method: as §1

CAL-148 [17] = settings: 72 h
Summary of the method: as §1

DU-4475 [18] = settings: 72 h; remark: listed apart in the source
Summary of the method: (§3)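 EC50 is the value from a fitted percent-inhibition dose-response curve, censored at the highest concentration, and rows with zero drug sensitivity score were not kept. The underlying assay seeded breast cancer cell lines in 20 µl onto 384-well plates pre-loaded with compound in 5 µl medium for 72 h. Viability was then read by CellTiter-Blue fluorescence at 560/590 nm after 2 h at 37 °C, with each plate normalised to vehicle and a positive kill control.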

MDA-MB-453 [19] = settings: 72 h; remark: listed apart in the source
Summary of the method: as §3

HDQ-P1 [20] = settings: 72 h
Summary of the method: as §3

CAL-51 [21] = settings: 72 h; remark: listed apart in the source
Summary of the method: as §3

CAL-85-1 [22] = settings: 72 h; remark: listed apart in the source
Summary of the method: as §3

CAL-148 [23] = settings: 72 h; remark: listed apart in the source
Summary of the method: as §3

SK-BR-3 [24] = settings: 72 h; remark: listed apart in the source
Summary of the method: as §3

MDA-MB-436 [25] = settings: 72 h; remark: listed apart in the source
Summary of the method: as §3

HCC1937 [26] = settings: 72 h; remark: listed apart in the source
Summary of the method: as §3

MDA-MB-231 [27] = settings: 72 h; remark: listed apart in the source
Summary of the method: as §3

BT-549 [28] = settings: 72 h; remark: listed apart in the source
Summary of the method: as §3

HCC1143 [29] = settings: 72 h; remark: listed apart in the source
Summary of the method: as §3

BT-474 [30] = settings: 72 h
Summary of the method: as §3

MDA-MB-468 [31] = settings: 72 h; remark: listed apart in the source
Summary of the method: as §3

Hs578T [32] = settings: 72 h; remark: listed apart in the source
Summary of the method: as §3

CAL-120 [33] = settings: 72 h; remark: listed apart in the source
Summary of the method: as §3

MFM-223 [34] = settings: 72 h; remark: listed apart in the source
Summary of the method: as §3

MCF-10A [35] = settings: 72 h; remark: listed apart in the source
Procedure: as §2

HDQ-P1 [36] = settings: 72 h; remark: listed apart in the source
Procedure: as §2

CAL-51 [37] = settings: 72 h; remark: listed apart in the source
Procedure: as §2

HCC1937 [38] = settings: 72 h; remark: listed apart in the source
Procedure: as §2

CAL-85-1 [39] = settings: 72 h; remark: listed apart in the source
Procedure: as §2

MDA-MB-231 [40] = settings: 72 h; remark: listed apart in the source
Procedure: as §2

BT-549 [41] = settings: 72 h; remark: listed apart in the source
Procedure: as §2

HCC1143 [42] = settings: 72 h; remark: listed apart in the source
Procedure: as §2

BT-474 [43] = settings: 72 h; remark: listed apart in the source
Procedure: as §2

Hs578T [44] = settings: 72 h; remark: listed apart in the source
Procedure: as §2

MFM-223 [45] = settings: 72 h; remark: listed apart in the source
Procedure: as §2

MDA-MB-468 [46] = test: normalised viability (% of control), CellTiter-Blue; higher = more viable cells (about 100 = DMSO control); settings: incubation time: 72 h
Summary of the method: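 The reported figure is normalised viability at a single listed concentration of the series. Breast cancer cell lines (20 µl suspension) went onto 384-well plates holding compound in 5 µl medium for 72 h. CellTiter-Blue (2.5 µl, 2 h, 37 °C) was read by fluorescence at 560/590 nm, and each plate was scaled to vehicle at 100 and a positive kill control at 0.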

Compound: CC1(C)CCC(CN2CCN(c3ccc(C(=O)NS(=O)(=O)c4ccc(NCC5CCOCC5)c([N+](=O)[O-])c4)c(Oc4cnc5[nH]ccc5c4)c3)CC2)=C(c2ccc(Cl)cc2)C1 [ABT-199]
- EC50, CellTiter-Glo (CAL-51 [1]): 702 nM
- EC50, CellTox Green (MDA-MB-468 [2]): 3.5 nM
- EC50, CellTox Green (CAL-120 [3]): > 10000 nM

Compound: CC(=O)O[C@@]12CO[C@@H]1C[C@H](O)[C@@]1(C)C(=O)[C@H](O)C3=C(C)[C@@H](OC(=O)[C@H](O)[C@@H](NC(=O)OC(C)(C)C)c4ccccc4)C[C@@](O)([C@@H](OC(=O)c4ccccc4)[C@H]21)C3(C)C [Docetaxel]
- EC50, CellTiter-Glo (SK-BR-3 [4]): 1.37 nM
- EC50, CellTiter-Glo (DU-4475 [5]): 8.31 nM
- EC50, CellTiter-Glo (MDA-MB-436 [6]): 2.14 nM
- EC50, CellTiter-Glo (MDA-MB-453 [7]): 7.15 nM
- EC50, CellTiter-Glo (MCF-10A [8]): 1.04 nM
- EC50, CellTiter-Glo (CAL-51 [1]): 5.86 nM
- EC50, CellTiter-Glo (HCC1937 [9]): 0.69 nM
- EC50, CellTiter-Glo (HCC1599): 12.2 nM
- EC50, CellTiter-Glo (CAL-85-1 [10]): 1.46 nM
- EC50, CellTiter-Glo (MDA-MB-231 [11]): 5.5 nM
- EC50, CellTiter-Glo (BT-549 [12]): 1.03 nM
- EC50, CellTiter-Glo (HCC1143 [13]): 1.17 nM
- EC50, CellTiter-Glo (Hs578T [14]): 2.47 nM
- EC50, CellTiter-Glo (CAL-120 [15]): 3.3 nM
- EC50, CellTiter-Glo (MFM-223 [16]): 3.29 nM
- EC50, CellTiter-Glo (CAL-148 [17]): 1.52 nM
- EC50, CellTiter-Blue viability (DU-4475 [18]): 2.52 nM
- EC50, CellTiter-Blue viability (MDA-MB-453 [19]): 2.02 nM
- EC50, CellTiter-Blue viability (HDQ-P1 [20]): 1.39 nM
- EC50, CellTiter-Blue viability (CAL-51 [21]): 4.62 nM
- EC50, CellTiter-Blue viability (CAL-85-1 [22]): 2.27 nM
- EC50, CellTiter-Blue viability (CAL-148 [23]): 1.85 nM
- EC50, CellTiter-Blue viability (SK-BR-3 [24]): 1.9 nM
- EC50, CellTiter-Blue viability (MDA-MB-436 [25]): 2.53 nM
- EC50, CellTiter-Blue viability (HCC1937 [26]): 1.02 nM
- EC50, CellTiter-Blue viability (MDA-MB-231 [27]): 2.39 nM
- EC50, CellTiter-Blue viability (BT-549 [28]): 1.03 nM
- EC50, CellTiter-Blue viability (HCC1143 [29]): 1.71 nM
- EC50, CellTiter-Blue viability (BT-474 [30]): 6.71 nM
- EC50, CellTiter-Blue viability (MDA-MB-468 [31]): 0.808 nM
- EC50, CellTiter-Blue viability (Hs578T [32]): 1.36 nM
- EC50, CellTiter-Blue viability (CAL-120 [33]): 2.27 nM
- EC50, CellTiter-Blue viability (MFM-223 [34]): 2.57 nM
- EC50, CellTox Green (MCF-10A [35]): 3.14 nM
- EC50, CellTox Green (HDQ-P1 [36]): 123 nM
- EC50, CellTox Green (CAL-51 [37]): 1.63 nM
- EC50, CellTox Green (HCC1937 [38]): 946 nM
- EC50, CellTox Green (CAL-85-1 [39]): 1.87 nM
- EC50, CellTox Green (MDA-MB-231 [40]): 1.94 nM
- EC50, CellTox Green (BT-549 [41]): 57.8 nM
- EC50, CellTox Green (HCC1143 [42]): 108 nM
- EC50, CellTox Green (BT-474 [43]): 5.12 nM
- EC50, CellTox Green (Hs578T [44]): 4.24 nM
- EC50, CellTox Green (MFM-223 [45]): 12.2 nM
- normalised viability (MDA-MB-468 [46]; 1 nM): 69.7% and 68.9%
- normalised viability (MDA-MB-468 [46]; 100 nM): 53% and 46.7%
- normalised viability (MDA-MB-468 [46]; 1000 nM): 46.3% and 52.4%
